ED50 data for 1 molecule are collected here from US4971970A, “Benzoheterocyclic compounds” (Otsuka Pharmaceutical Company, Limited, priority 1988, dated 1990).

In this test the test system is Escherichia coli No. 29 strain. Kind of test: Antimicrobial activity in vivo (ED50 in mice infected with Escherichia coli No. 29). Conditions: mice (10 per group), i.p. infection with E. coli No. 29 (10^5 -10^6 cells/mouse) in mucin, compound oral one hour after infection, observed one week, Probit method, read-out: 50 % effective dose (ED50). Here is the method: Experiment (Antimicrobial activity in vivo)
Escherichia coli No. 29 strain was cultured in a nutrient medium at 37° C., and the culture broth was diluted with the same medium and thereto was added an equivolume of 6 % mucin solution to prepare a cell solution.
The cell solution thus prepared (0.5 ml) (e. coli cells; 10^5 -10^6 cells/mouse) was intraperitoneally administered to mice (10 mice per group). […] From the number of dead mice and the survival mice, the 50 % effective dose (ED50) of the test compound was calculated by Probit method.

Turning to `Cc1c(F)c(N2CCNC(C)C2)cc2c1c(=O)c(C=O)cn2C1CC1` (stereo not shown) [1-Cyclopropyl-6-fluoro-7-(3-methyl-1-piperazinyl)-5-methyl-3-formyl-1,4-dihydro-4-oxoquinoline], the ED50 (in general, the dose at which the effect has come halfway, by size or by number of responders) amounted to 0.331 mg/kg.
